Assay [1] has as its system 12-week HFD-fed DIO mice. In words: DIO intervention study: body weight, fat mass, fat pad weight, food intake. Format: in vivo. The note with it: 21 consecutive days.
The test system of assay [2] is epididymal CD11b+F4/80+ ATMs and CD11c+ M1 ATMs. In words: Flow cytometry of epididymal adipose tissue macrophages in DIO intervention study. The assay is classed as in vivo, mice. For orientation: A flow cytometer gives signals particle by particle.
The test system of assay [3] is 12-week HFD-fed CB2−/− DIO mice. Description: DIO intervention study in CB2-/- mice: body weight, adiposity, appetite. The assay is classed as in vivo. The note with it: AM251 10 mg/kg oral gavage, 21 consecutive days.
Assay [4] has as its system DIO mice. The conditions noted are these: 4 weeks' treatment of DIO mice; cited from earlier work.
Assay [5] relates to 6-week 36% HFD-fed mice. The conditions noted are these: cited from earlier work.
In assay [6] the test system is 12-week HFD-fed DIO mice. Description: Oral glucose tolerance test in DIO intervention study. Format: in vivo. The note with it: 21 consecutive days.
For assay [7], the system named is diet-induced obese (DIO) mice. The note with it: treatment of DIO mice with CB1 antagonist; cited from earlier work.
The test system of assay [8] is 20 week 21% HFD-fed DIO mice. The conditions noted are these: 15 days of CB2 agonism; cited from earlier work.
Assay [9] deals with DIO mice. The note with it: chronic administration in DIO mice; cited from earlier work.
Setting [10] is: AM251 10 mg/kg oral gavage, WT DIO mice.
Where [11] appears, read: 6-week 36% HFD-fed mice, treatment for 15 days.
Setting [12] is: SR144528 10 mg/kg oral gavage, versus vehicle-treated mice.
[13] abbreviates: JWH-133 5 mg/kg oral gavage, 21 consecutive days, 5 mg/kg.
Setting [14] is: Deveaux et al., 15 day treatment of 6-week HFD-fed DIO.

Entries after “also recorded” stand apart in the source; their conditions may differ.

For the compound `Cc1c(C(=O)NN2CCCCC2)nn(-c2ccc(Cl)cc2Cl)c1-c1ccc(I)cc1` [AM251], the fat pad mass entry in assay [1] (AM251 10 mg/kg oral gavage) is recorded as “reduced”. In [1] (setting [10]), the adiposity entry was “reduced”, the appetite entry is “suppressed” and the body weight entry was “weight loss”. Further, in assay [2] (AM251 10 mg/kg oral gavage, after 3 weeks of treatment, 10 mg/kg), the “epididymal ATM numbers” value is given as “remained constant; also recorded: persistent abundance”. In [3], the adiposity result is “reduced”, the appetite result is on record as “suppressed” and the body weight result was “weight loss”. For the same compound, the body weight entry in assay [4] is “rapid and sustained weight loss”.
Consider `COc1ccc(C(=O)c2c(C)n(CCN3CCOCC3)c3cc(I)ccc23)cc1` [AM630], for which the “adipose tissue inflammatory markers” value in assay [5] (setting [11]) is given as “reduced”. Besides, the ATMs result in assay [5] (6-week 36% HFD-fed mice) was “reduced”.
Consider SR144528, for which, in assay [1] (setting [12]), the body weight result is given as “no changes” and the food intake entry is reported as “no changes”. The glucose tolerance result in assay [6] (setting [12]) is “no changes”. Further, in assay [2] (SR144528 10 mg/kg oral gavage, 21 consecutive days, versus vehicle-treated mice), the adipose tissue inflammation result is on record as “no changes”.
On to `Cc1c(C(=O)NN2CCCCC2)nn(-c2ccc(Cl)cc2Cl)c1-c1ccc(Cl)cc1` [SR141716A], for which, in assay [7], the metabolic impairments result is on record as “amelioration” and the obesity result is recorded as “amelioration”. For the same compound, in [4], the adipose tissue inflammation entry is recorded as “decreased”; the body weight result was “rapid and sustained weight loss”.
`CCCn1c(C)c(C(=O)c2cccc3ccccc23)c2ccccc21` [JWH-015]: in [8], the adiposity result is listed as “reduced”, the appetite response entry is reported as “anorectic response”, the body weight loss result is reported as “approximately 10%” and the glucose tolerance result is reported as “improved”. The lipolysis entry in [8] was “increased”.
`CCCCCc1cc(O)c2c(c1)OC(C)(C)[C@@H]1CCC(C)=C[C@@H]21` [THC, delta-9-tetrahydrocannabinol]: in assay [9], the HFD-induced adiposity result is “reduces”, the HFD-induced polyphagia result was “reduces” and the HFD-induced weight gain entry is “reduces”.
On to `CCCC(C)(C)c1ccc2c(c1)OC(C)(C)[C@@H]1CC=C(C)C[C@@H]21` [JWH-133], for which, in assay [1] (JWH-133 5 mg/kg oral gavage), the body weight entry is given as “did not significantly alter”, the fat mass result was “did not significantly alter” and the food intake entry was “did not significantly alter”. Moreover, in [1] (JWH-133 5 mg/kg oral gavage, 5 mg/kg), the fat pad mass result is “fat pad loss; also recorded: fat pad shrinkage”. For the same compound, the glucose tolerance entry in [6] (JWH-133 5 mg/kg oral gavage) was “did not significantly alter”. In [2] (JWH-133 5 mg/kg oral gavage, 21 consecutive days), the “numbers of M1 ATMs per gram of fat” value is “increased”. In assay [2] (setting [13]), the “numbers of ATMs per gram of fat” value is “increased and more”; the “total ATMs” value was “promoted persistence; also recorded: stable abundance”. Moreover, in assay [5] (setting [11]), the “adipose tissue inflammatory markers” value was “increased” and the body weight entry was “no change”. For the same compound, in assay [5] (setting [14]), the obesity result was “potentiated” and the “white adipose tissue expression of Emr1 (macrophage marker F4/80)” value was “increased”.

The values are drawn from patent publication US20210401805A1, “Immune CB1 Activation for Obesity Therapy” (University of South Carolina, priority 2020, published 2021).
